# Measured values taken from patent US20070196288A1, “Method of treating periodontitis and of reducing dentinal sensitivity” (Research Foundation of the State University of New York, priority 2006, published 2007).
# Legend:
# [1] = test system: cell culture media-precipitated proteases from P. Gingivalis; assay: BAPNA hydrolysis by culture media-precipitated proteins; format: biochemical, P. Gingivalis 381; conditions: FIG. 1; inhibitor 2-10 mM tested, 10 mM stated for gadolinium nitrate; 5% 2-mercaptoethanol, 37° C., 1 hour
# Protocol: (§1) All steps in the isolation of P. Gingivalis proteins were carried out at 4° C. […] The cells and culture media were separated by centrifugation at 10,000×g for 10 minutes in a Sorvall centrifuge.
# To the cell-separated culture supernatant, ammonium sulfate was added to achieve 80% saturation in a volume of 400 ml. After 4 hours, the precipitate was collected by centrifugation at 11,000×g for 45 minutes. It was then dissolved in HEPES and dialyzed against 4 liters of HEPES buffer. The precipitate formed on dialysis was removed by centrifugation at 10,000×g for 30 minutes, the supernatant was collected, and the precipitated material was discarded. Extracted proteins was analyzed for protein content using a Spectrophotometer ND-1000.
# (§2) Activity of cell surface-extracted and culture-precipitated proteases was assayed by using the synthetic chromogenic substrate benzoyl-L-Arg-p-nitroanilide (BAPNA). [Erlanger, B. F., Kokowsky, N. & Cohen, W., “The Preparation and Properties of Two New Chromogenic Substrates of Trypsin”, 95 Arch. […] Colorimetric values measured as absorbance were obtained using Spectronic 2000 Methodology for culture media-precipitated proteins.
# The reaction mixture consisted of 50 μl of 100 mM substrate in 50 mM HEPES buffer, pH 7, and 25 μl of the sample protease containing 2 mg/ml of protein was used to test chromogenic activity of the substrate. With 5% of 2-mercaptoethanol as reducing agent, volume was made to 250 μl. Various concentrations of the inhibitor 2 mM; 4 mM; 6 mM; 8 mM; 10 mM were used.
# (§3) After incubation at 37° C. for 1 hour, 100 μl of 5 N acetic acid was added to stop the reaction in both experimental samples. The total volume was made to 1 ml by addition of water. The p-nitroaniline released was determined by measuring A405.
# [2] = test system: cell surface-extracted proteases from P. Gingivalis; assay: BAPNA hydrolysis by cell surface-extracted proteins; format: biochemical, P. Gingivalis 381; conditions: for inhibitory effect on cell surface-extracts (BAPNA hydrolysis): FIG. 2, inhibitor 0.4-2.4 mM tested, 2.4 mM stated for gadolinium nitrate, 5% 2-mercaptoethanol, 37° C., 1 hour; for OD at A405 (p-nitroaniline released): inhibitor concentration 2.4 mM
# Protocol: as §1
# P. Gingivalis cells collected after centrifugation were washed three times with 50 millimolar (“mM”) HEPES buffer, pH 7.0. The washed cells were stirred with 1% Triton X-100 (Fisher Scientific) dissolved in HEPES (Fisher Scientific) at 4° C. for 15 minutes to solubilize cell surface proteins. The cells were centrifuged at 10,000×g in a Sorvall centrifuge for 10 minutes, and the supernatant was collected. [Sojar, H. T., Lee, J. Y., Bedi, G. S. et al., “Purification and Characterization of a Protease from Porphyromonas Gingivalis Capable of Degrading Salt-Solubilized Collagen”, 61 Infect. Immun. […] The amount of protein was estimated using a Spectrophotometer ND-1000 by absorbance at 280 nm.
# as §2
# The reaction mixture consisted of 100 μl of 100 mM substrate in 50 mM HEPES buffer, pH 7, 50 μl of an approximately 1 mg/ml of proteins was used to test chromogenic activity of the substrate. With 5% of 2-mercaptoethanol as reducing agent, the volume was made to 500 μl. Various volumes of the inhibitor 0.4 mM; 0.8 mM; 1.2 mM; 1.6 mM; 2.0 mM; 2.4 mM were used.
# as §3
# [3] = Dissolution of gadolinium materials; format: physicochemical
# [4] = test system: P. Gingivalis proteins extracted from cell surface and precipitated from cell culture media (gelatin-cleaving / collagenolytic activity); assay: Gelatin zymography; format: biochemical, P. Gingivalis 381; conditions: inhibitor 5 mM in development buffer, 37° C. overnight; both protein preparations (FIGS. 3 and 4)
# Excerpt: Since P. Gingivalis proteases cleave gelatin effectively, the gelatin-cleaving activity of the extracted proteins was checked by zymography, as described by Heussen and Dowdle using 10% Zymogen (Gelatin) Gel 1.0 mm×10 well (Invitrogen Corporation). [Heussen, C. & Dowdle, E. B., “Electrophoretic Analysis of Plasminogen Activators in Polyacrylamide Gels Containing Sodium Dodecyl Sulfate and Copolymerized Substrates”, 102 Anal. Biochem. 196-202 (1980).]
# The extracted proteins, with the reducing sample buffer containing 5% mercaptoethanol, was electrophoresed. After electrophoresis, the gel was washed in 50 mM HEPES, pH 7.0, containing 2% Triton X-100 for 30 minutes, and rinsed twice with the same buffer without Triton X-100. The gel was then cut into 3 parts before transferring to a development buffer containing 50 mM HEPES, 5% 2-mercaptoethanol, buffered at pH 7.0. One part was incubated with developing buffer whereas the other two parts were incubated in the presence of inhibitor with varying concentrations of 5 mM and 10 mM. The gel was incubated at 37° C. overnight on a rocker. The incubated gel was then fixed with 50% methanol and 12% acetic acid for 30 minutes, and stained with 0.1% Coomassie blue in 50% methanol and 12% acetic acid to visualize lytic bands.
# [5] = pH of the applied solution; format: physicochemical; conditions: pH of the solution or product as applied to dentine
SMILES,"inhibition of protease activity (BAPNA hydrolysis), cell culture-precipitated proteins [1]",inhibitory effect on cell surface-extracts (BAPNA hydrolysis) [2],OD at A405 (p-nitroaniline released) [2],conditions required for dissolution [3],effect on gelatin-cleaving / collagenolytic activity on zymogram [4],pH [5],pH ([5]; listed as Gadolinium nitrate)
"O.O.O.O.O.O.O.[Ce+3].[Cl-].[Cl-].[Cl-] [cerium chloride, cerium chloride heptahydrate (CeCl3.7H2O)]",~11%,~32%,~0.66,–,–,–,–
O=C([O-])C(=O)[O-].O=C([O-])C(=O)[O-].O=C([O-])C(=O)[O-].[Gd+3].[Gd+3] [Gadolinium oxalate],–,–,–,required very acidic conditions for dissolution,–,–,–
"O.O.O.O.O.O.O=[N+]([O-])[O-].O=[N+]([O-])[O-].O=[N+]([O-])[O-].[Gd+3] [gadolinium nitrate, gadolinium nitrate hexahydrate, (Gd(NO3)3.6H2O)]",–,~56%,~0.43,–,inhibited the collagenolytic activity,4.3,about 4.3
"O.O.O.O.O.O.[Cl-].[Cl-].[Cl-].[Gd+3] [gadolinium chloride, gadolinium chloride hexahydrate (GdCl3.6H2O)]",~70%,~54%,~0.45,–,–,–,–
[Gd] [gadolinium],–,–,–,–,negative staining bands were absent,–,–
"O.O.O.O.O.O.[Cl][Sm]([Cl])[Cl] [samarium chloride, samarium chloride hexahydrate, (SmCl3.6H2O)]",~75%,~59%,~0.39,–,–,–,–
